“Also recorded” adds a separate entry of the source.
Tests used:
[1] = test system: non-mucoid and mucoid Pseudomonas aeruginosa; test: Bacterial growth in liquid LB medium and on LB-agar plates; format: cell-based
IB3-1 CF cells = test: SPQ halide fluorescence assay of Cl- efflux; format: cell-based, human; conditions: Na+- and Mg2+-free vehicle, 3 mM Ca2+, pH 7.9
Description: Modifications to this method involved the use of NaCl at the beginning and end of protocols. Agonists were tested in NMDGNO3-containing solution (as above for Ca^2+ assays).
In our modified saline vehicle that was devoid of Na+ and Mg^2+ and enriched in Ca^2+ (3 mM) along with modifications in the halides (Cl− substituted with iodide to quench the SPQ dye and nitrate to unquench), ATP plus zinc or zinc alone was added to IB3-1 CF cells and halide efflux was rescued in these cells. The effects were dependent upon an alkaline extracellular pH (pH 7.9) and the presence of extracellular Ca^2+. In essence, the rescue of Cl− transport (measured with a different halide in this case) was dependent upon the same chemical conditions as the zinc-induced Ca^2+ entry.

ENaC [2] = molecular target: T1, ENaC (Mus musculus, UniProt Q61180+Q9WU38+Q9WU39); test: Ussing chamber / voltohmmeter recordings of ENaC-mediated Na+ absorption in airway and PKD collecting duct monolayers; format: cell-based; conditions: for concentrations required for inhibition in ISC recordings / doses inhibitory in PD assays: ARPKD sodium hyperabsorption; for doses inhibitory in PD assays: VTE/PD
T1 construct: from tissue; host or cells: nasal mucosa of living control, Cincinnati bitransgenic CF and delF508 CF mice
T1 sequence (Q61180 1-699): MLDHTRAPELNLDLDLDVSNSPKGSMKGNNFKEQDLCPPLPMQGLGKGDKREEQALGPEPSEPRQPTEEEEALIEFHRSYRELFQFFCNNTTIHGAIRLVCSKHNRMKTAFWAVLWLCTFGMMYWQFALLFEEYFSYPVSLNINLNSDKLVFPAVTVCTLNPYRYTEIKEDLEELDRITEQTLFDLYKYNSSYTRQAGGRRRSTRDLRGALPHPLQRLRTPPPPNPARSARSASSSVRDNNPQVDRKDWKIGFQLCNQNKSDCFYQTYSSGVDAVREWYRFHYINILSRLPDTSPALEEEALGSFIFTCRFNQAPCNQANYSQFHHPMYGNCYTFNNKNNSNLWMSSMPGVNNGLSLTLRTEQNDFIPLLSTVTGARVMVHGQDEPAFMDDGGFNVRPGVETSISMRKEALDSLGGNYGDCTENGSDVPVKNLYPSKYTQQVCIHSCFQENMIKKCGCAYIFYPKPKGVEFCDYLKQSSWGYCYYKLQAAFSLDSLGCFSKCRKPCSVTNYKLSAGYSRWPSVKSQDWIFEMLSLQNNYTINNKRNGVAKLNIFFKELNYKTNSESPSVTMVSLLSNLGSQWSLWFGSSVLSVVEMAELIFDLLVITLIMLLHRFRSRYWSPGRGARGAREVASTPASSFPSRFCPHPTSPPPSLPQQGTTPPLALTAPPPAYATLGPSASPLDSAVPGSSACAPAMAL
T1 sequence (Q9WU38 1-638): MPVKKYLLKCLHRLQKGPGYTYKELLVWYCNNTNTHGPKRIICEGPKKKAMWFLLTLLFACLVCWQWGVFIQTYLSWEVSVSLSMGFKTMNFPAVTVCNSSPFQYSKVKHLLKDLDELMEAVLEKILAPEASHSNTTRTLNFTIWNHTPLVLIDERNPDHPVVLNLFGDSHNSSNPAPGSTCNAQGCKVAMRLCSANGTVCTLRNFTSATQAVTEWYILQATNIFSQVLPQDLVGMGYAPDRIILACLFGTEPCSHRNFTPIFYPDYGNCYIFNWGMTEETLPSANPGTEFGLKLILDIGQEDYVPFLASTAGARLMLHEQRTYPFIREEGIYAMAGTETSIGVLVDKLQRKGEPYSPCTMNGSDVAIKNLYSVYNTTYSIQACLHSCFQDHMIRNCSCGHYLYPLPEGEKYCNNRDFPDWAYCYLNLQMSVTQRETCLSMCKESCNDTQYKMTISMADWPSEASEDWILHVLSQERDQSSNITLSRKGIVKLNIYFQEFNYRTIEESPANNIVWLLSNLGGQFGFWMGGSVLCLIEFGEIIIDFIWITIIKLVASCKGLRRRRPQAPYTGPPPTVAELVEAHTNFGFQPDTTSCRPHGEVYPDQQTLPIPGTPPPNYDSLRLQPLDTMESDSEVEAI
T1 sequence (Q9WU39 1-655): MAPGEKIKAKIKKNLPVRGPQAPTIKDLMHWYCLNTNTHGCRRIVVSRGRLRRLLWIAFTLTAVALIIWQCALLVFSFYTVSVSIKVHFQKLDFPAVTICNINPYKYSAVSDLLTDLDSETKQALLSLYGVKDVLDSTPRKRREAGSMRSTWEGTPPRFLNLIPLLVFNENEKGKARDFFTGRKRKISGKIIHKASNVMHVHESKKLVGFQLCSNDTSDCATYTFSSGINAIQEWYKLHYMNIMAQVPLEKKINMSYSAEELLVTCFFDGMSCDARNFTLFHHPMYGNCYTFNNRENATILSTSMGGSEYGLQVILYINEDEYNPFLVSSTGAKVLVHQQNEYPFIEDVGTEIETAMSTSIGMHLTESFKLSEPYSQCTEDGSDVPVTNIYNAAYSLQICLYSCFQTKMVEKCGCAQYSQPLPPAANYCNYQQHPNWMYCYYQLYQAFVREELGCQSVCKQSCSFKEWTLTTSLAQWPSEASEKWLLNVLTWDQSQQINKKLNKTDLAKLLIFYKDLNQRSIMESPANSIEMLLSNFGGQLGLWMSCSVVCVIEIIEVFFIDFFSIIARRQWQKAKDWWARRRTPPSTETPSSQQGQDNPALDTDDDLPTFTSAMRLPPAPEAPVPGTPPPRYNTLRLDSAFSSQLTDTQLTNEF

calcium entry channels = test: Fura-2 fluorescence ratio, sustained calcium entry signals in mammalian cells (FIG. 19C); format: cell-based
[3] = test system: P2X receptor Ca^2+ entry channels; test: Fura-2/AM fluorescence imaging of cytosolic Ca2+ in IB3-1 CF airway epithelial cells; format: cell-based, human
INS-1 cells = test: ELISA of insulin secretion from INS-1 cells; format: cell-based, rat; conditions: 15 seconds to 120 minutes after stimulation
[4] = test system: INS-1 rat pancreatic β cells; test: Fura-2 fluorescence assay of cell calcium in INS-1 cells; format: cell-based; conditions: Na+- and Mg2+-free Ringer, zinc alone 1-50 micromolar
Description: Cytosolic Ca^2+ concentration was measured with dual excitation wavelength fluorescence microscopy (Deltascan, Photon Technologies, Princeton, N.J.) after cells were loaded with the permeant form of the fluorescence dye, Fura-2-acetoxymethyl ester (Fura-2-AM; Teflabs, Austin, Tex., USA). Fura-2 fluorescence was measured at an emission wavelength of 510 nm in response to excitation wavelength of 340 nm and 380 nm, alternated at a rate of 50 Hz by a computer-controlled chopper assembly. Ratios (340 nm/380 nm) were calculated at a […] using PTI software. Cells were incubated in Dulbecco's phosphate buffered saline containing 2 mM CaCl2 and 1 mM MgCl2 in the presence of 5 μM Fura2-AM and 1 mg/ml Pluronic F-127 dissolved in DMSO for 120 min to allow loading of the dye into the cells. After loading, coverslips were rinsed at least for 10 min in Dulbecco's phosphate buffered saline to remove extracellular Fura 2-AM and the surfactant, and were positioned in the cuvette at a 45° angle from the excitation light. […] Fluorescence intensities at both wavelengths were assessed and only those preparations in which there were >200,000 counts/s for both wavelengths were used for experiments. At the beginning of each experiment, cells were perfused with solution A (see below) and the fluorescence ratio was monitored for at least 100 sec to establish a stable baseline value. […]

ENaC [5] = molecular target: T1, ENaC; test: In vivo nasal potential difference, ENaC-mediated Na+ absorption
[6] = test system: Cl− transport across the nasal mucosa; test: In vivo nasal potential difference, rescue of Cl- secretion; design: species or system mouse; conditions: CF mice

O=S(=O)([O-])[O-].O=S(=O)([O-])[O-].O=S(=O)([O-])[O-].[Fe+3].[Fe+3] [Ferric iron, ferric sulfate]
growth, iron competition experiment [1]: enhanced growth significantly

[Cl-].[Cl-].[Zn+2] [ZnCl2, zinc chloride]
halide efflux / Cl- permeability in CF cells (IB3-1 CF cells): restored Cl− permeability

ferrous sulfate
growth, iron competition experiment [1]: inhibit

[Zn+2] [zinc]
concentrations required for inhibition in ISC recordings (ENaC [2]): Millimolar | doses inhibitory in PD assays (ENaC [2]): mid-micromolar | concentration range inhibiting ENaC (ENaC [2]; Ussing chamber recordings): 50 to 100 µM | Fura-2 fluorescence ratio, sustained calcium entry (calcium entry channels; Na+ free conditions, pH 7.9): 2.1 | zinc-induced increases in Ca2+ ([3]; Ca2+-free medium): small and transient | insulin secretion versus glucose stimulus (INS-1 cells): even more potent stimulus than glucose | effect on cell calcium / Ca2+ entry [4]: further sustained increase in Ca^2+ entry; also recorded: small transient increase above the sustained plateau | halide efflux / Cl- permeability in CF cells (IB3-1 CF cells): rescued | depolarization of NPD (ENaC [5]; Cincinnati bitransgenic CF mouse): ~10 mV | depolarization of NPD (ENaC [5]; control mouse, NaCl-replete lactated Ringer): 3-4 mV | depolarization of NPD (ENaC [5]; deIF508 CF mouse): 6-7 mV | IC50 ([1]; read-out: IC50, bacterial growth inhibition): 1000 to 5000 µM

CC(C)NCC(O)c1ccc(O)c(O)c1 (centres unmarked) [isoproterenol]
effect on nasal PD [6]: without effect

[Ni] [nickel, reference compound]
concentrations required for inhibition in ISC recordings (ENaC [2]): Millimolar | doses inhibitory in PD assays (ENaC [2]): mid-micromolar

ivermectin
effect on zinc and/or ATP induced manganese or calcium entry ([3]; included with ATP and/or zinc, Fura-2 quenching and direct Fura-2 assays): potentiated

C[C@H](CCC(=O)O)C[C@H](C)C[C@H](C)C(=O)/C=C(\O)[C@H](C)C[C@H](C)C/C=C/[C@@H](C)[C@@H](O)[C@@H](C)[C@@H](O)C[C@@H]1CC[C@@](C)([C@H]2CC[C@@](C)([C@@H](C)O)O2)O1 [ionomycin]
Fura-2 fluorescence ratio, sustained (calcium entry channels; ionomycin 2 μM): 3.4

[Cu] [copper]
effect on zinc effects (Ca2+ entry) [3]: competitively inhibit

C/C=C(/C)C(=O)O[C@H]1C(C)=C2[C@H]([C@@H]1OC(=O)CCCCCCC)[C@@](C)(OC(C)=O)C[C@H](OC(=O)CCC)[C@@]1(O)[C@H]2OC(=O)[C@@]1(C)O [thapsigargin]
Fura-2 fluorescence ratio, transient peak (store-operated calcium channels) (calcium entry channels; thapsigargin 100 nM, ER store depletion and re-addition of extracellular calcium): 3.0 | effect on zinc-induced Ca2+ transients ([3]; thapsigargin pretreatment, Ca2+-free medium): abolished
